Source: patent US20220332836A1, “A METHOD FOR PREVENTING HUMAN VIRUS ASSOCIATED DISORDERS IN PATIENTS” (NOVARTIS AG, priority 2019, published 2022)

What was measured:
[1] = system: monocyte-derived dendritic cells (DCs); assay: Cytokine production by monocyte-derived dendritic cells; format: cell-based
Procedure: (§1) mAb1 binds to human CD40 with high affinity (Kd of 0.3 nM).

[2] = system: whole blood cultures; settings: whole blood cultures incubated for three days (Ristov 2018); cited from earlier work
[3] = system: PBMC; assay: Induction of PBMC proliferation; format: cell-based
Procedure: as §1

[4] = system: human leukocytes; assay: rCD154-induced activation of human leukocytes; format: cell-based
Procedure: as §1

[5] = system: platelet aggregation
[6] = system: EBV-seropositive EBV-B cell/T cell co-cultures; assay: EBV-B cell/T cell co-culture, EBV-seropositive donors
[7] = system: T cell-dependent antibody responses (TDAR); assay: In vivo T cell-dependent antibody responses and germinal centers
[8] = target: T1, CD40 (Macaca mulatta, UniProt A0ACM8QRX8); assay: KLH / tetanus toxoid immunization in rhesus monkeys; format: in vivo
T1 construct: CD40 occupancy by mAb1 at plasma concentrations >40 μg/mL; endogenous in cells; host or cells: rhesus monkeys (in vivo)
Procedure: In a PK/PD study in cynomolgus monkeys, the inflection point (about 10 μg/mL) in the PK profiles was associated with a drop of CD40 saturation, as determined in an independent lymphocyte target saturation assay. As such this inflection point is viewed as a marker for the level of saturation of CD40, and an evidence for target engagement. […] Monkeys were immunized with KLH three times (the first was about 3 weeks prior to dosing, the second was 2 weeks after mAb1 administration, and the third was after complete wash-out of mAb1). […]

[9] = system: NK cell-depleted PBMC cultures; assay: EBV regression assay, complete or NK cell-depleted PBMC; format: cell-based, human; settings: 14 days
Text: (§2) FIG. 16 provides CD3^+ T cell counts from the NK cell-depleted PBMC regression assay after 14 days of culture measured by flow cytometry. Antibodies (in μg/mL) and CsA (in μM) were given in combination with EBV supernatants (except the negative control=medium w/o EBV). Dotted horizontal line was set to the condition ‘medium+EBV’. Data are shown as mean+SEM (n=4).
as §2, with “17” for “16”, “CD19^+ B cell counts from the PBMC regression assay after 14 days of culture measured by flow cytometry. Antibodies (in μg/mL) and CsA (in μM) were given in combination with EBV supernatants (except the negative control=medium w/o EBV). Dotted horizontal line was set to the condition ‘medium+EBV’. Data are shown as mean+SEM (n=4); and CD19^+ B” for “CD3^+ T”
All conditions except ‘medium w/o EBV’ were incubated with EBV supernatant and respective compound or antibodies. […] Looking at the CD19+ B cell proliferation (FIG. 3), there was an obvious increase in CD19+ B cell counts when PBMC were incubated with EBV supernatant compared to PBMC cultured with medium only (medium w/o EBV). […]

[10] = 26-week chronic toxicity study in cynomolgus monkeys; format: in vivo; settings: for mean Cmax,ss: sc
Procedure: Inflammatory lesions in the kidneys and lungs of 2 animals at 50 mg/kg were noted, and in one of the two animals, lesions in the eyes and trachea were also noted. […] In view of these inflammatory findings, the No Observed Adverse Effect Level (NOAEL) for the 13-week toxicity study was set at 10 mg/kg. […] The NOAEL derived from the 26-week cynomolgus monkey study is considered the most relevant for supporting the clinical dosing regimen.
Adequate safety margin from preclinical toxicological studies: GLP toxicology studies to date have tested CFZ533 at (i) weekly s.c. dosing for 13 weeks at 10, 50, and 150 mg/kg (s.c. and i.v.) in rhesus monkeys, and (ii) weekly s.c. dosing for 26 weeks at 1, 50, and 150 mg/kg in cynomolgus monkeys.
In the 26-week toxicity study in cynomolgus monkey, at steady state, an average concentration of 8300 μg/mL (Cav,ss) was obtained after weekly dosing at 150 mg/kg (NOAEL).
The 10 mg/kg i.v. regimen was expected to provide, throughout the entire treatment period (placebo-controlled and open-label, see FIG. 3), sustained plasma concentrations above 40 μg/mL, to anticipate for higher CD40 expression in tx patients, and incomplete PD effects in target tissue due to loss of target saturation.

[11] = system: PBMC incubated with EBV supernatant; assay: EBV regression assay with PBMC; format: cell-based, human
Procedure: Buffy coats from six healthy volunteers (18-001 to 18-006) were received from Blutspendezentrum Bern. Peripheral blood mononuclear cells (PBMC) were isolated using LeucoSep tubes following manufacturer's instructions, counted with TC20 and adjusted in cell culture medium (Medium, buffers and reagents). All conditions (see Table 3-2) were run in five replicates in 96-well U-bottom plates and contained 2×10^5 cells/well. PBMC were incubated for 10-15 minutes at 37° C. before adding cell culture medium containing EBV-supernatant and transferrin (see Medium, buffers and reagents). […] Cell pellets were stained and analyzed by flow cytometry (FACS staining procedure).
In FIG. 1, the gating strategy is shown.

[12] = 10-200 μg/mL, priming, recall, priming and recall, 11 days
[13] = cynomolgus monkey, in vivo, 150 mg/kg
[14] = 14 days, CsA 0.1, 1 μM, Belatacept 10, 50 μg/mL, CFZ533, hIgG1 10-200 μg/mL, vs medium+EBV

T1 sequence (A0ACM8QRX8 21-278): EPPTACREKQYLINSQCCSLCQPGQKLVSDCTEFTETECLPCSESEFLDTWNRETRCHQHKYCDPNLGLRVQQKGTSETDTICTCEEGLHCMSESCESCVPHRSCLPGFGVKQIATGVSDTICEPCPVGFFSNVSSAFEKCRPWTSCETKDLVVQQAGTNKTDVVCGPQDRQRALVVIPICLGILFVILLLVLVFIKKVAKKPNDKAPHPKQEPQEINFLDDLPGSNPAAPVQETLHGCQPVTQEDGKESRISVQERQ

Substance: CFZ533: fully human monoclonal Fc-silent, non-depleting anti-CD40 antibody (IgG1/K); heavy chain SEQ ID NO: 9, light chain SEQ ID NO: 10
- induction of cytokine production by monocyte-derived dendritic cells [1]: does not induce
- ADCC [2]: no ADCC
- induction of PBMC proliferation [3]: does not induce
- rCD154-induced activation of human leukocytes [4]: inhibits
- effect on platelet aggregation [5]: mild inhibitory effects
- induction of platelet aggregation responses [5]: does not induce
- CD3+ T cell proliferation [6, 12]: no reducing effect
- CD4+ T cell proliferation [6, 12]: no decreasing effect
- CD4+ T cell proliferation ([6]; priming only phase): slight decline
- established germinal centers (GCs) [7]: can disrupt
- primary and secondary T cell-dependent antibody responses (TDAR) [7]: blocks
- plasma concentration at which CD40 occupancy completely prevented recall antibody responses ([8]; at the time of the second KLH vaccination): > 40 µg/mL
- response to the third KLH ([8]; once mAb1 was cleared): full memory antibody response
- CD19+ B cell counts [9]: decrease in CD19+ B cell counts compared to isotype control independently of NK cells
- average steady state plasma concentration with complete suppression of germinal centers in cortical B cell areas of lymph nodes ([10]; 1 mg/kg dose group): > 38 µg/mL
- NOAEL ([10]; 26-week, cynomolgus): 150 mg/kg
- adverse findings ([10]; cynomolgus monkey, in vivo): no adverse, mAb1-related findings
- average concentration at steady state (Cav,ss) [10, 13]: 8300 µg/mL
- systemic exposure (AUC, steady state) over a 1-month period [10, 13]: 232400 µg·days/mL
- mean Cmax,ss ([10]; cynomolgus monkey, in vivo, 1 mg/kg): 44 µg/mL
- mean Cmax,ss ([10]; cynomolgus monkey, in vivo, 50 mg/kg): 3235 µg/mL
- GCs in cortical B-cell areas of the spleen and lymphatic tissues ([10]; post-mortem histological and immuno-histological evaluation): decrease
- Cmax margin: cynomolgus Cmax,ss at NOAEL versus expected human Cmax ([10]; proposed intravenous regimen): 24 fold
- EBV control in vitro [11]: does not impair
- CD3+ T cell counts [11, 14]: did not had any effect
- CD19+ B cell counts [11, 14]: decrease
